Test results from ChEMBL document CHEMBL1201862, “PubChem BioAssay data set” (2004).
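Compound exposure: 48 hours, 5 concentrations, 96-well plates. GI50 marks 50% less growth.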 The source made the active and inactive calls. No stated cut-off is given here; in the data, active = GI50 up to about 1.1 µM and inactive = higher.

Key:
Experiment in all cases: DTP human tumour cell line panel, 48 h
786-0 = system: 786-0
A498 = system: A498
BT-549 = system: BT-549
EKVX = system: EKVX
HT-29 = system: HT-29
MCF7 = system: MCF7
MDA-MB-435 = system: MDA-MB-435
NCI-H460 = system: NCI-H460
OVCAR-4 = system: OVCAR-4
OVCAR-5 = system: OVCAR-5
RXF 393 = system: RXF 393
SF-268 = system: SF-268
SF-539 = system: SF-539
SNB-75 = system: SNB-75
U-251 = system: U-251
UACC-62 = system: UACC-62
UO-31 = system: UO-31
HCT-15 = system: HCT-15
M14 = system: M14

Structure (SMILES)	GI50 (786-0)	GI50 (A498)	GI50 (BT-549)	GI50 (EKVX)	GI50 (HT-29)	GI50 (MCF7)	GI50 (MDA-MB-435)	GI50 (NCI-H460)	GI50 (OVCAR-4)	GI50 (OVCAR-5)	GI50 (RXF 393)	GI50 (SF-268)	GI50 (SF-539)	GI50 (SNB-75)	GI50 (U-251)	GI50 (UACC-62)	GI50 (UO-31)	GI50 (HCT-15) [µM]	GI50 (M14)
Cc1nc(Nc2ccc(Cl)c(Cl)c2)sc1C(=O)/C=C/c1ccc2c(c1)OCO2	20.2 µM (inactive)	23.3 µM (inactive)	21.5 µM (inactive)	34.5 µM (inactive)	36.8 µM (inactive)	25.1 µM (inactive)	20.5 µM (inactive)	34.5 µM (inactive)	17.8 µM (inactive)	88.7 µM (inactive)	15.9 µM (inactive)	24.3 µM (inactive)	23.7 µM (inactive)	14.4 µM (inactive)	22 µM (inactive)	37.6 µM (inactive)	16.9 µM (inactive)		
CNCC(SC)c1ccc(O)c(O)c1 (stereo not given)	18.6 µM (inactive)	> 100 µM (inactive)	16.6 µM (inactive)	15.8 µM (inactive)	30.7 µM (inactive)	29.2 µM (inactive)	32.1 µM (inactive)	16.7 µM (inactive)	17 µM (inactive)	> 100 µM (inactive)	33.6 µM (inactive)	38.1 µM (inactive)		28.8 µM (inactive)	61.1 µM (inactive)	41.6 µM (inactive)	43 µM (inactive)	30.8	52.8 µM (inactive)
CCCSc1ccc2[nH]c(N3C(=O)/C(=C/c4ccc(SC)cc4)N=C3c3ccccc3)cc2c1	26.2 µM (inactive)	26.9 µM (inactive)	> 38.7 µM (inactive)	18.2 µM (inactive)	22.7 µM (inactive)	14.1 µM (inactive)	5.05 µM (inactive)	18.3 µM (inactive)	19.6 µM (inactive)	> 50 µM (inactive)	19.9 µM (inactive)	29.8 µM (inactive)	14 µM (inactive)	> 34.4 µM (inactive)	27.1 µM (inactive)	24.7 µM (inactive)	> 35.8 µM (inactive)	22.1	21.4 µM (inactive)
C=CCN1CCC(OC(=O)C(O)(C#CC)C2CCCC2)CC1 (stereo not given)	> 100 µM (inactive)	> 100 µM (inactive)	> 100 µM (inactive)	> 100 µM (inactive)	> 100 µM (inactive)	> 100 µM (inactive)	> 100 µM (inactive)	> 100 µM (inactive)	> 100 µM (inactive)	> 100 µM (inactive)	> 100 µM (inactive)	> 100 µM (inactive)	> 100 µM (inactive)	> 77.3 µM (inactive)	> 100 µM (inactive)	> 100 µM (inactive)	> 100 µM (inactive)	> 100	> 100 µM (inactive)
O=C1Nc2ccccc2C(=O)/C1=C/NC(=S)NC1CCCCC1	> 100 µM (inactive)	> 100 µM (inactive)	> 100 µM (inactive)	> 100 µM (inactive)	> 100 µM (inactive)	> 100 µM (inactive)	> 100 µM (inactive)	> 100 µM (inactive)	> 100 µM (inactive)	> 100 µM (inactive)	> 100 µM (inactive)	> 100 µM (inactive)	> 100 µM (inactive)	> 100 µM (inactive)	> 100 µM (inactive)	> 100 µM (inactive)	> 100 µM (inactive)	> 100	> 100 µM (inactive)
Cc1cs/c(=N/c2ccccc2)n1CCC(O)(P(=O)(O)O)P(=O)(O)O	> 100 µM (inactive)		> 100 µM (inactive)	> 100 µM (inactive)	> 100 µM (inactive)	> 100 µM (inactive)		90.6 µM (inactive)		> 100 µM (inactive)	> 100 µM (inactive)	> 100 µM (inactive)	> 100 µM (inactive)	> 100 µM (inactive)		> 100 µM (inactive)	> 100 µM (inactive)	63.1	> 100 µM (inactive)
N#Cc1nc(C#N)n(C(=O)c2ccccc2)c1NC(=O)c1ccccc1	> 100 µM (inactive)	> 100 µM (inactive)	> 100 µM (inactive)	> 100 µM (inactive)	> 100 µM (inactive)	> 100 µM (inactive)	> 100 µM (inactive)	> 100 µM (inactive)	> 100 µM (inactive)	> 100 µM (inactive)	> 100 µM (inactive)	> 100 µM (inactive)	> 100 µM (inactive)	> 100 µM (inactive)	> 100 µM (inactive)	> 100 µM (inactive)	> 100 µM (inactive)	> 100	> 100 µM (inactive)
N#CC1=C(N)OC2=C(CCCc3ccc([N+](=O)[O-])cc32)C1c1ccc(Cl)cc1 (stereo not given)	4.84 µM (inactive)	5.73 µM (inactive)	17.4 µM (inactive)	4.43 µM (inactive)	4.1 µM (inactive)	4.03 µM (inactive)	5.92 µM (inactive)	3.83 µM (inactive)	3.3 µM (inactive)	16.6 µM (inactive)	4.68 µM (inactive)	8.43 µM (inactive)	8.97 µM (inactive)	11.8 µM (inactive)	4.57 µM (inactive)	5.02 µM (inactive)	3.3 µM (inactive)	3.12	16.4 µM (inactive)
